Measurements as given in patent US9809640B2, “ApoE peptide dimers and uses thereof” (priority 2010, dated 2017).
Starred links: 1 amine or outer side, 2 acyl side, 3 side chain; linkers in the order of their positions; H or OH if unused. Positions of bridges follow the written chain, without caps; N, C: chain ends. Chains are numbered I, II in the order given. BMOE = O=C1CC([*:1])C(=O)N1CCN1C(=O)CC([*:2])C1=O

Columns and labels:
BV2 microglia cells = test: LPS-induced nitric oxide production in BV2 microglia cells; type: cell-based
Method: FIG. 1. COG 112 inhibits LPS-induced production of inflammatory cytokines in BV2 microglia cells. Inhibition curves for COG112 in the production of NO (green squares), TNFα (red diamonds), and IL-6 (blue triangles) by BV2 microglia. Compounds were added to the final concentrations indicated on the graph along with 100 ng/mL of LPS. After 24 hours the media was removed and assayed by two-site ELISA (BioSource) and quantitated relative to a standard curve on the same plate.
FIG. 3. NO Inhibition curve for COG449. BV2 microglia were treated with COG449 at the final concentrations indicated on the graph, along with 100 ng/mL of LPS. After 24 hours the media was removed and assayed by two-site ELISA (BioSource) and quantitated relative to a standard curve on the same plate.
(§1) We also evaluated the various peptides for efficacy in suppressing nitric oxide production induced by LPS stimulation of BV2 microglia cells as a measure of anti-inflammatory activity as well as the maximum dose tolerated in mice (Table I and FIG. 6A). For the LPS assay, EC50 is the concentration of compound that caused a 50% suppression of nitric oxide release from BV2 cells following LPS stimulation. For mouse toxicity, MTD is the maximum dose of the compound that can be given by intravenous injection without causing deaths after 24 hrs. […] Coupling the ApoE domain to a protein transduction domain further enhanced the potency of the dimers.
Low passage BV2 microglial cell cultures are maintained in 10% HI (Heat Inactivated) FBS DMEM media (supplemented with MEM NEAA (Non-Essential Amino Acids), sodium pyruvate and Pen-Strep) and continuously cultured until needed. To determine the IC50 values for NO production, peptides are added to BV2 cultures in 1% HI FBS DMEM media (supplemented with MEM NEAA and sodium pyruvate) at a range of final assay concentrations from 1.0 μM in 2 fold dilutions to 7.8 nM followed immediately by addition of LPS (100 ng/mL final concentration) as previously described (Laskowitz et al. (2001) Exp Neurol, Vol. 167(1): 74-85). After incubating for 18±1 hours, conditioned media is removed for analysis of nitrite (the stable oxidation product of released nitric oxide) by the Griess colorimetric assay (Promega). Remaining cells are assayed for viability in an MTT assay (Promega) and the nitrite assay values are normalized for each concentration using the percent viability of cells in the MTT assay. […] Typically, the absence of LPS exposure to BV2 cells results in levels below the limit of detection in our assays. Similarly, addition of any of the peptides up to 25 μM without LPS results in undetectable NO levels.

TNFα = test: LPS-induced TNFα production in BV2 microglia; type: cell-based; conditions: BV2 cells
Method: (§2) FIG. 1. […] Compounds were added to the final concentrations indicated on the graph along with 100 ng/mL of LPS. After 24 hours the media was removed and assayed by two-site ELISA (BioSource) and quantitated relative to a standard curve on the same plate.
(§3) A series of fusion peptides with COG133 conjugated to a PTD were prepared by chemical synthesis.

normal B-cells = test: Cytotoxicity on normal B-cells from volunteers; type: cell-based, human; conditions: normal B-cells from volunteers
Text: (§5) Normal B-cells from volunteers and B-CLL cells from patients are isolated using the RosetteSep™ Human B Cell Enrichment Cocktail according to the manufacturer's instructions. This method depletes whole blood of T cells, monocytes, and NK cells using a proprietary antibody cocktail that cross-links unwanted cells in human whole blood to multiple red blood cells (RBCs) forming immunorosettes. This increases the density of the unwanted (rosetted) cells, such that they pellet along with the free RBCs when centrifuged over a buoyant density medium such as Ficoll-Paque®. This leaves the highly enriched B-cell or B-CLL cells at the interface between Ficoll and the plasma. The antibodies in the cocktail contain anti-CD14, anti-CD2 and anti-CD16 antibodies to remove T cells, monocytes, and NK cells, respectively. The purity of these B-cell and B-CLL preparations is then determined by flow cytometry. Preparations typically average less than 2% CD3+ T-cells and less than 0.5% CD14+ monocytes. In the case of B-CLL cell isolation, we routinely obtain preparations that contain less than 1.5% normal CD19+/CD5− B-cells using this method.

BV2 cells = test: LD50 of COG112 (safety window versus suppression in BV2 cells); type: cell-based
Method: We have previously shown that the addition of a protein transduction domain (PTD), such as an antennapedia peptide, to the apoE-mimetic COG133 peptide (LRVRLASHLRKLRKRLL (SEQ ID NO: 3)) enhances its anti-inflammatory activity. A series of fusion peptides with COG133 conjugated to a PTD were prepared by chemical synthesis.

[1] = Mouse toxicity, maximum tolerated dose by intravenous injection; conditions: in vivo, maximum dose by intravenous injection without deaths after 24 hrs
Text: as §1

B-CLL cells = test: Cytotoxicity on patient-derived B-CLL cells (MTS assay)
Text: FIG. 5A: Dose response curves for COG449 cytotoxicity on CLL cells from 4 leukemia patients. Human CLL cells were isolated from blood samples and assayed for COG449 cytotoxicity. […] FIG. 5B: Dose response curves for COG445 on CLL cells from 7 patients or normal B-cells from 5 patients. Human CLL cells and PBMC were isolated and assayed for cytotoxicity of COG445.
Blood from CLL patients was collected and CD5+/CD19+ CLL cells were isolated using the RosetteSep™ Human B-Cell Enrichment Cocktail, according to the manufacturer's instructions, and treated with COG compounds. Compounds were applied to B-CLL cells (2.5×10^5 cells/well in a 96 well plate), after which the cells were treated for 72 hours.
Normal B-cells from volunteers and B-CLL cells from patients are isolated using the RosetteSep™ Human B Cell Enrichment Cocktail according to the manufacturer's instructions. This method depletes whole blood of T cells, monocytes, and NK cells using a proprietary antibody cocktail that cross-links unwanted cells in human whole blood to multiple red blood cells (RBCs) forming immunorosettes. This increases the density of the unwanted (rosetted) cells, such that they pellet along with the free RBCs when centrifuged over a buoyant density medium such as Ficoll-Paque®. This leaves the highly enriched B-cell or B-CLL cells at the interface between Ficoll and the plasma. The antibodies in the cocktail contain […] and anti-CD16 antibodies to remove T cells, monocytes, and NK cells, respectively. The purity of these B-cell and B-CLL preparations is then determined by flow cytometry.
For cytotoxicity assays, 3×10^6 CLL cells/well are cultured in 24 well tissue culture plates in 1.5 mL of Hybridoma SFM™ (Gibco, Long Island, N.Y.) as described by Levesque et al. (2001, 2003). All cultures are incubated at 37° C., 5% CO2 in air.

IL-6 = test: LPS-induced IL-6 production in BV2 microglia; type: cell-based; conditions: BV2 cells
Method: as §2, §3

U87MG glioblastoma cells = type: cell-based; conditions: MTT
Method: FIG. 14A: Dose response curve of COG445 on proliferation of U87 (open circles) and MDA-MB-231 (filled circles) cells as measured by MTT reduction. FIG. 14B: Dose response curve of COG445 on proliferation of MDA-MB-231 cells as measured by cell count.
To determine whether ApoE peptide dimers were cytotoxic to other types of cancer, we evaluated the effect of three different ApoE BMOE-linked peptide dimers (COG449, COG492, COG493; see Table I) on the growth characteristics of U87MG glioblastoma cells. Various concentrations of COG449, COG492, COG493 or Sorafenib were used to treat U87MG glioblastoma cells and viable cells were quanititated using MTT. Sorafenib, which has previously been reported to be cytotoxic to glioblastoma cells (Yang et al. (2010) Mol Cancer Ther., Vol. 9(4):953-962), was used as a positive control.
Because COG445 inhibited Akt activation and downstream signaling, we examined the effects of COG445 on cellular proliferation. Adherent MB231 and U87 cells were grown for ˜24 hours in the presence of COG445 and cellular proliferation was measured by MTT reduction. […] Furthermore, COG445 inhibited MB231 cellular proliferation as determined by cell count (FIG. 14B). Approximately 6×10^4 cells were plated in growth media (RPMI+10% FBS) for 24-hours with increasing concentrations of COG445. […] However at concentrations ≧1 μM COG445, there appears to be a loss of cells. This is partially explained by decreased proliferation, although it is possible that the rate of cellular degradation was increased in the presence of COG445.

CLL cells = conditions: 24 h
Method: We next sought to determine whether SET antagonism would destabilize Mcl-1. Destabilization of Mcl-1 by treatment with SET antagonists was evaluated by treating primary human CLL cells for 24 hr with the ApoE peptide dimer COG449 (a BMOE-linked dimer of COG112; see Example 2) and evaluating the level of Mcl-1 in the cells.

PP2A = PP2A activity in 32D:BCR/Abl chronic myelogenous leukemia cells (PP2A immunoprecipitation assay); type: cell-based; conditions: 1 μM, 30 minutes
Method: FIGS. 4A-4B. The BMOE-linked dimer peptide COG449 activates PP2A in CML cells. FIG. 4A: 32D-BCR/Abl chronic myelogenous leukemia cells were treated with COG449 (1 μM), COG445 (1 μM) (disulfide-linked COG112 dimer) or no treatment, and the PP2A activity was measured. FIG. 4B: 32D:BCR/Abl cell cultures were treated with no compound, 1 μM COG449, or 5 μM FTY720 for 30 minutes followed by lysis in an NP40 lysis buffer. PP2A was immunoprecipitated and assayed with the PP2A Immunoprecipitation assay kit (Upstate) according to the manufacturer's directions.
To further evaluate the effect of COG449, we measured the ability of the stable dimerized COG449 compound to activate PP2A in 32D:p210^BCR/Abl chronic myelogenous leukemia cells. […] 32D:p210^BCR/Abl chronic myelogenous leukemia cells were treated with no compound, 1 μM COG449, or 5 μM FTY720. We observed a robust increase of approximately 45% relative specific activity (phosphate release/minute/unit protein) of PP2A upon treatment with COG449 alone when compared to the untreated control, and about 20% activation compared with FTY720 (FIG. 4B).

[2] = Cytotoxicity on normal B-cells from volunteers; type: cell-based, human; conditions: human, normal B-cells from volunteers
Text: as §5

[3] = test system: Ramos cell line of Burkitt's lymphoma; test: Growth of Ramos cells in culture; type: cell-based; conditions: read-out: EC50 growth inhibition in culture
MDA-231 cells = test: Combination treatment of MDA-231 cells (MTT); type: cell-based; conditions: sub-lethal doses, 48 hrs, greater than either compound alone
Method: FIG. 29. Combination treatment with COG449 and sorafenib or gefitinb on triple negative breast cancer (TNBC) cell line growth. MDA-231 cells were grown in the presence of COG449, sorafenib, or gefitinb at sub-lethal doses as indicated. After 48 hrs, live cells were quantified using the MTT assay. *** indicates p<0.001.
(§4) To begin assessment of the potential of combination therapies with COG449, we analyzed the effect of treating MDA-231 cells with sub-lethal doses of COG449 and the multi-kinase inhibitor Sorafenib or the EGFR inhibitor Gefitinib at concentrations below their ED50 doses. […] We also evaluated the effects of COG449 in vivo using xenograft experiments. To determine whether COG449 might be effective against TNBC tumors in xenografts, immune compromised NOD/SCID gamma-chain null (NSG) mice were injected with MDA-231 cells into their 4th mammary glands. Once tumors became palpable at around 10 days, tumors were treated by […] subcutaneous injection of COG449 at 10 mg/kg. At 28 days post-xenograft, daily intra-tumor injection of COG449 was initiated and continued until sacrifice (FIG. 30A). In order to use a more clinically relevant treatment paradigm, MDA-231 xenografted mice were treated 3-times a week with 1 mg/kg COG449 by intravenous injection (FIG. 30B).

MDA-MB-231 xenografts = test: MDA-MB-231 TNBC xenografts in NSG mice; type: in vivo; conditions: both xenograft studies
Method: FIGS. 30A-30B. Inhibition of triple negative breast cancer (TNBC) tumor growth in xenografts with COG449 treatment. FIG. 30A: 4×10^6 MDA-MB-231 cells were injected with Matrigel into the 4th mammary glands of immune compromised mice and treated daily by subcutaneous injection of 10 mg/kg COG449 starting at day 10. FIG. 30B: 4×10^6 MDA-MB-231 cells were injected with Matrigel into the 4th mammary glands of immune compromised mice and treated by intravenous tail vein injection 3× week at 1 mg/kg starting at day 27 post injection. Tumor volume was determined by caliper measurement.
as §4, with “In order to use a more clinically relevant treatment paradigm, MDA-231 xenografted mice were treated 3-times a week with 1 mg/kg COG449 by intravenous injection (FIG. 30B).” left out

breast cancer cell lines = test: Cytotoxicity in breast cancer cell lines by cell counting; type: cell-based, human; conditions: serum-free media, 24 hrs
Method: FIG. 28. Cytotoxic effects of COG449 in breast cancer cells. Cell lines were grown in serum-free media and COG449 as indicated for 24 hrs. Cellular proliferation was measured by cell counting. Cell number is represented relative to control, untreated cells.

[4] = Tolerability of COG449 by intravenous infusion; type: in vivo

Substance: Ac-RQIKIWFQNRRMKWKKCLRVRLASHLRKLRKRLL-NH2 [COG112, RQIKIWFQNRRMKWKK-C-LRVRLASHLRKLRKRLL (SEQ ID NO: 1)]
- EC50 (BV2 microglia cells; 50% suppression of nitric oxide release from BV2 cells following LPS stimulation): < 1 µM
- IC50 (BV2 microglia cells; BV2 cells, LPS 100 ng/mL, read-out: IC50 for NO production/release): 0.021 µM
- IC50 (TNFα): 0.058 µM
- EC50 (normal B-cells): > 20 µM
- LD50 (BV2 cells): 7 µM
- safety window, LD50 versus effective suppression concentrations (BV2 cells; versus 12-58 nM): > 120 fold
- MTD at 24 h [1]: 28 mg/kg
- Fold Change (B-CLL cells; CLL EC50 relative to COG056 (rev133) = 1.0): 9.2
- EC50 (B-CLL cells; read-out: CLL EC50, B-CLL cells from patients, 72 hours, MTS assay): 1.4 µM
- IC50 (IL-6): 0.012 µM

Substance: I: Ac-RQIKIWFQNRRMKWKKCLRVRLASHLRKLRKRLL-NH2 / II: Ac-RQIKIWFQNRRMKWKKCLRVRLASHLRKLRKRLL-NH2 (linker I:17-II:17 via BMOE) [COG449, COG112-C-BMOE-C-COG112]
- cytotoxicity to U87MG cells (U87MG glioblastoma cells): cytotoxic
- EC50 (CLL cells): ~0.11 µM
- increase of relative specific activity of PP2A compared to untreated control (PP2A): approximately 45%
- EC50 at 72 h [2]: > 10 µM
- EC50 [3]: 0.125 µM
- MTD at 24 h [1]: 12 mg/kg
- cytotoxic effect in combination with Gefitinib (MDA-231 cells): robust cytotoxic effect
- cytotoxic effect in combination with Sorafenib (MDA-231 cells): robust cytotoxic effect
- cytotoxic effects in mice (MDA-MB-231 xenografts): No cytotoxic effects
- cytotoxicity to breast cancer cell lines incl. MDA-231, MDA-468, HCC38 (breast cancer cell lines): cytotoxic to all cell lines
- first adverse events ([4]; 20 mg/kg): mild edema in the front paws and lethargy
- adverse effects ([4]; intravenous infusion, 10-15 mg/kg): without any observed adverse effects
